Read-outs that look alike come from different tables or passages of the source.
Columns and labels:
[1] = tested on: wtAR, mtARt877a, PR, VDR, ER transactivation; assay: Steroid receptor transactivation with Smad3 in DU145 cells (wtAR, mtARt877a, PR, VDR, ER); assay type: cell-based, human
[2] = tested on: wtAR, mtARt877a, PR, VDR, ER transactivation; conditions: previous reports; cited from earlier work
[3] = biological target: T1, interaction between Smad3 and AR (Homo sapiens, UniProt P10275); assay: Mammalian two-hybrid assay Gal4-Smad3 / VP16-AR; assay type: cell-based; conditions: DU145
T1 construct: expressed in transfected cells; host or cells: DU145

[4] = tested on: AR-mediated transactivation; assay: AR-mediated transactivation with TGF-β, MMTV-CAT in DU145 and PC-3 cells; assay type: cell-based, human
Experimental: 19. […] (B). […] In the right panel, a fixed amount of TGF-β1 (10 ng/ml) was added into transfected PC-3 cells with increasing amounts of specific TGF-β1 neutralizing antibody. (C), PC-3(AR)2 cells stably transfected with AR were overexpressed with TGF-β type I (TβRI) or type II (TβRII)receptor or constitutively active TGF-β type I receptor (TβRI-T204D) as indicated. 3 μg of MMTV-CAT or MMTV-Luc was used as a reporter plasmid in all experiments. All values represent the averages+SD of four independent experiments.
284. To study the potential correlation between androgen and TGF-β in prostate cancer cells, the TGF-β responsive prostate cancer DU145 and PC-3 cells were chosen to examine the effect of TGF-β on androgen-induced mouse […] tumor virus (MMTV) promoter activity. […] Similar results were obtained with PC-3 cells, where AR-mediated transactivation was enhanced by TGF-β (FIG. 13B, lane 2 Vs 3-5) and suppressed by the TGF-β specific neutralizing antibody (FIG. 13B, lane 6 vs. 7-10), both in a dose-dependent manner (FIG. 13B).
294. […] The CAT activity was visualized and quantitated by STORM 840 (Molecular Dynamics). […]

AR transactivation [5] = assay: AR transactivation with Smad3/Smad4, CAT reporters in PC3-AR2, PC-3 and LNCaP cells; assay type: cell-based, human; conditions: PC3-AR2
Experimental: 32. […] LNCaP cell were transfected with Smad3 or Smad4 expression vector instead of PC-3(AR)2 cells in experiments otherwise identical with those in A (B), PC-3(AR)2 cells stably transfected with AR were over-expressed with the indicated amounts of Smad3 or Smad4 or SRC-1. 3 μg of MMTV-CAT was used as a reporter plasmid in all experiments. All values represent the averages±SD of four independent experiments. […] PSA expression level was determined by Northern blotting. The probe was obtained from exon 1 of the PSA gene and labeled with [α-^32P] dCTP. A β-actin probe was used as a control for equivalent mRNA loading. (C, Table 1) The RNA samples from (A) were reverse transcribed to cDNAs and all of the samples were subjected to real-time CR using an ABI Prism 7700 Sequence Detection System (Perkin-Elmer Applied bio systems). PCR was performed using the SYBR Green PCR Core Reagents kit (Perkin-Elmer Applied Bio systems). PSA and β-actin forward, reverse primers concentrations were 2.5 μM. To reduce variability between replicates, PCR premixes which contained all reagents except for total RNA were prepared and aliquoted into 1.5 ml microfuge tubes. Specific PCR amplification products were detected by the fluorescent double-stranded DNA-binding dye SYBR Green core reagent kit. […]
333. […] The CAT activity was visualized and quantitated by STORM 840 (Molecular Dynamics). […]

PSA mRNA expression = PSA mRNA expression in LNCaP cells, Northern blot; assay type: cell-based; conditions: presence of androgen
AR protein levels = assay: AR protein (Western blot) and AR mRNA (Northern blot) levels; assay type: cell-based
AR transactivation [6] = assay: AR transactivation, (ARE)4-luc in CWR22 cells; assay type: cell-based, human
Experimental: (§1) 31. […] (D) The LNCaP cells were transfected with plasmids as indicated for 16 h, and the medium was changed to 0.1% CDS media for 2 days. The cell apoptosis was determined by TUNEL assay (E) The LNCaP cells were transfected with plasmids as indicated for 16 h, harvested, and the cell extracts were subjected to SDS-PAGE. The Akt activity was determined by Western blotting using phospho(S473)-Akt antibody. (F) The U87MG cells were transfected with plasmids as indicated for 16 h, and the medium was changed 0.1% CDS media for 2 days. The cell apoptosis was determined by TUNEL assay. Data for luciferase activity and apoptosis are means±s.d. from three independent experiments.
312. […] The cells were lysed and the luciferase activity was detected by the dual luciferase assay according to standard procedures.

U87MG cells = assay: PTEN-induced apoptosis in AR-negative U87MG cells, TUNEL assay; assay type: cell-based
Experimental: as §1
311. For the apoptosis assay, the cells were transfected with plasmids for 24 h and grown in 0.1% charcol-stripped serum (CDS) media. The apoptosis was determined 2 days after transfection using the TUNEL assay according to the standard procedures (Oncogene). At least 200 cells were scored for each sample and data are means±s.d. from three independent experiments.

AR transactivation [7] = assay: AR transactivation, MMTV-luc / (ARE)4-luc luciferase reporter assay; assay type: cell-based; conditions: 10 nM DHT; for Repression of AR transactivation: MMTV-luc
AR, ER, GR, PR, RXR = assay: GST pull-down assay of PTEN with nuclear receptors; assay type: binding; conditions: presence or absence of ligand
Experimental: 27. […] (A) GST or GST-PTEN incubation with the [^35S]-labeled AR, ER, or RXR for 2 h in the presence or absence of the ligand. The bound proteins were analyzed by SDS-PAGE, followed by autoradiography. (B) Representation of PTEN deleted mutants. PTP domain, protein tyrosine phosphates domain; Ty-p, tyrosine phosphorylation domain. (C) [^35S]-labeled AR was incubated with different PTEN deleted mutants. The nearly equivalent aliquots of PTEN deleted mutants used are shown in the right panel. (D) Representation of AR deleted mutants. (E) GST or GST-PTEN was incubated with different AR deleted mutants. (F) The His-AR-N-DBD was incubated with [^35S]-PTEN or [^35S]-PTEN C124S for 2 h. The bound protein was analyzed by the SDS-PAGE, followed by autoradiography.
313. GST fusion proteins were purified as described by the manufacturer (Amersham Pharmacia). The purified GST-proteins were resuspended with 100 μl of interaction buffer (20 mM Tris-HCl/pH 8.0, 60 mM NaCl, 1 mM EDTA, 6 mM MgCl2, 1 mM Dithiothreitol, 8% Glycerol, 0.05% (v/v) NP-40, 1 mM PMSF, and proteinase inhibitors) and mixed with 5 μl of [^35S]-labeled TNT proteins in the presence or absence of 1 μM ligands on a rotating disk at 4° C. for 2 h. After extensive washes with NENT buffer, the bound proteins were separated on an 8% SDS-polyacrylamide gel and visualized by autoradiography.

AR protein stability = assay: Pulse-chase labeling of AR in COS-1 cells; assay type: cell-based; conditions: 10 nM DHT
Experimental: 30. […] The cells were harvested for Western blot analysis. […] Western blot analysis was performed and AR and PTEN were detected by AR antibody or PTEN antibody. (C) PTEN-C1 cells were treated with 4 μg/ml Dox in 10% CDS media for 48 h. Total RNA was prepared and Northern blot analysis was performed using [^32P]-dCTP-labeled AR (aa, 1-389) as a probe. (D) COS-1 cells were transfected with AR along with pCDNA3 or PTEN in 10% CDS media for 16 h. […] The cell extracts were immunoprecipitated with AR antibody and subjected to SDS-PAGE followed by autoradiography. Data were from three identical results. (E) COS-1 cells were transfected with AR along with pCDNA3 or dAkt in 10% CDS media for 16 h, pulsed with [^35S]-methionine for 45 min, and then harvested at different chase times as indicated. LY294002 (20 μM) was added 2 h before pulsing with [^35S]-methionine.
317. Pulse-chase experiments were performed as described (Lo et al. (1999) Nat Cell Biol 1, 472-8) with some modifications. Briefly, COS-1 cells were transfected with pSG5-AR in combination with pCDNA3 or pCDNA3 PTEN in 10% CDS media for […]. Cells were grown under serum starvation conditions for 2 h in methionine/cysteine-deficient medium, and then the cells were pulsed for 45 min with 200 μCi/ml [^35S]-methionine/cysteine (NEN). […]

LNCaP cells = assay: PTEN-induced apoptosis in LNCaP cells, TUNEL assay; assay type: cell-based; conditions: 0.1% CDS media 2 days
AR transactivation [8] = conditions: previous reports; cited from earlier work
AR transactivation [9] = assay: AR transactivation with TSA, MMTV-LUC in PC3-AR2 cells; assay type: cell-based

T1 sequence (P10275 whole entry, the tested form may be a part): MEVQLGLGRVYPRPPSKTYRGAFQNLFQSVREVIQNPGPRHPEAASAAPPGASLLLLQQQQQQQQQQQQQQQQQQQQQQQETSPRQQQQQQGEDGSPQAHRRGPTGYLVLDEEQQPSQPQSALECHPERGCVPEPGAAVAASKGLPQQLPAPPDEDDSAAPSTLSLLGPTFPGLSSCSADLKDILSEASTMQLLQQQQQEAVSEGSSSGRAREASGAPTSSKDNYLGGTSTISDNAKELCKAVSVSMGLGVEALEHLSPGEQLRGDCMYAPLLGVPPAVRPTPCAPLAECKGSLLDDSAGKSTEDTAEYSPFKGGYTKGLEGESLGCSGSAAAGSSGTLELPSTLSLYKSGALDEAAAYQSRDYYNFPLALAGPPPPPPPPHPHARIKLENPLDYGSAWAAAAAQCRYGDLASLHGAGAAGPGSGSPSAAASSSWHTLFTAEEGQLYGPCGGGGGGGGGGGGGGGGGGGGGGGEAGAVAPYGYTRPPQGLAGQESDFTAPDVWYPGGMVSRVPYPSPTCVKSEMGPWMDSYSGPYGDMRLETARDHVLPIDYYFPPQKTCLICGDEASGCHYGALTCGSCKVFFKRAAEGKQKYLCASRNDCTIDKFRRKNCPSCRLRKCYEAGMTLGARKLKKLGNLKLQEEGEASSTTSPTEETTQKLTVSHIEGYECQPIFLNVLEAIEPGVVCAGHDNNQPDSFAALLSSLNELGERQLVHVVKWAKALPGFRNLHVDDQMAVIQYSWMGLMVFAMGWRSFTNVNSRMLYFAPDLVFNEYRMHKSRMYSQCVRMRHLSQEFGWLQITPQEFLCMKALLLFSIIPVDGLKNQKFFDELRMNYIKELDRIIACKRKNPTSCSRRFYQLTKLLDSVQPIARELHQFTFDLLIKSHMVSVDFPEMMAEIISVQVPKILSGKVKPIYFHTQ
T1 sequence (P84022 whole entry partner, the tested form may be a part): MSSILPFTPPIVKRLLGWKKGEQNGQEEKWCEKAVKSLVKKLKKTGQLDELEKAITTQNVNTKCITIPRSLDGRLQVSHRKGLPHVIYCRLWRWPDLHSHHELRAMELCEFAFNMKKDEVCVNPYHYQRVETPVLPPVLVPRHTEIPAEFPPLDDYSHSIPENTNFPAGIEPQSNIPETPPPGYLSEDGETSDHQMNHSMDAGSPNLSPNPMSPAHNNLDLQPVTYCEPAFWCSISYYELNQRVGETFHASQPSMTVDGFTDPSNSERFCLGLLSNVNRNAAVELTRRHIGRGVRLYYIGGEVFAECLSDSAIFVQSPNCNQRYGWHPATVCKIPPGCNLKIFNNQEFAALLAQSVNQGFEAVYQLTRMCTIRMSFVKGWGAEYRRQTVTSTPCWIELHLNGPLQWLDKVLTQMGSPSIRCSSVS

C[C@]12CC[C@@H]3c4ccc(O)cc4CC[C@H]3[C@@H]1CC[C@@H]2O [E2, 17-β estradiol]
mtARt877a transactivation response to ligand [1]: responded much better
wtAR transactivation response to ligand ([1]; DHT 10 nM, HF 1 μM, E2 10 nM): respond marginally
Stimulation of LNCaP mtARt877a [2]: stimulated

TGF-β: transforming growth factor β
Effect on Smad3-AR two-hybrid reporter gene activity ([3]; 10 nM DHT): further induced
Effect on Smad3-AR two-hybrid reporter gene activity ([3]; absence of DHT): cannot exert this effect
Effect on AR-mediated transactivation ([4]; DU145, 10^−8 M DHT, TGF-β1 10 ng/ml): enhanced
Effect on AR-mediated transactivation ([4]; PC-3, dose-dependent): enhanced

SRC-1: steroid receptor coactivator-1
Effect on AR transactivation in the presence of Smad3 or Smad4 (AR transactivation [5]): increase AR transactivation

PTEN: tumor suppressor, phosphatase and tensin homolog deleted on chromosome ten
Effect on androgen-induced PSA mRNA expression (PSA mRNA expression): repressed
AR protein levels (AR protein levels; COS-1 cells, transient transfection): reduce AR protein levels
AR mRNA levels normalized by β-actin (AR protein levels; LNCaP PTEN-C1, Dox-induced PTEN): remained relatively unchanged
Endogenous AR protein levels (AR protein levels; stable LNCaP clones, 4 μg/ml Dox 48 h, 10 nM DHT): reduced endogenous AR protein levels
Effect on AR transactivation (AR transactivation [6]): dramatically suppressed AR transactivation
Apoptosis (U87MG cells): still able to induce apoptosis
Repression of AR transactivation (AR transactivation [7]; AR negative DU145 and PC-3): less than 2 fold
Repression of AR transactivation (AR transactivation [7]; AR-positive LNCaP cells): 4 fold
Effect on AR transactivation (AR transactivation [7]; LNCaP, MMTV-luc and (ARE)4-luc): suppressed AR transactivation in both luciferase reporters at a similar level
Binding to nuclear receptors (AR, ER, GR, PR, RXR): binds preferentially to AR and the ER
Reduction of the half-life of newly synthesized [35S]-AR (AR protein stability): 4 to 5 fold
Apoptosis (LNCaP cells): induce apoptosis markedly

CC(=O)[C@H]1CC[C@H]2[C@@H]3CCC4=CC(=O)CC[C@]4(C)[C@H]3CC[C@]12C [progesterone]
Stimulation of LNCaP mtARt877a [2]: stimulated

CC(/C=C/C(=O)NO)=C\[C@@H](C)C(=O)c1ccc(N(C)C)cc1 [TSA, trichostatin A]
Effect on androgen-mediated AR transactivation (AR transactivation [8]): induce the androgen-mediated AR transactivation
Effect on Smad3/Smad4-suppressed AR transactivation (AR transactivation [9]): reverse the Smad3/Smad4-suppressed AR transactivation in a dose-dependent manner
Effect on AR transactivation (AR transactivation [9]; DHT, increasing doses): enhance AR transactivation in a dose-dependent manner
Effect on Smad3/Smad4-suppressed AR transactivation (AR transactivation [9]; listed as trichostatin A): reverse Smad3/Smad4-repressed AR transactivation

From patent US20040235717A1, “Suppression of androgen receptor transactivation through new pathways to ar and ar coactivators and repressors” (priority 2001, published 2004)
